From PubChem BioAssay (NCI)
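Step 1: Grow cells in 96-well plates. Step 2: Expose to compound for 48 hours at 5 concentrations. Step 3: Interpolate endpoints linearly; if unreached, use highest concentration. GI50 is the concentration that inhibits growth by half. TGI: total growth inhibition.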

What was measured:
Experiment in all cases: NCI tumour cell line growth inhibition, 48 h
COLO 205 colon = test system: COLO 205 colon
OVCAR-5 ovarian = test system: OVCAR-5 ovarian
BT-549 breast = test system: BT-549 breast
MCF7 breast = test system: MCF7 breast
DU-145 prostate = test system: DU-145 prostate
OVCAR-3 ovarian = test system: OVCAR-3 ovarian
HOP-92 NSCLC = test system: HOP-92 NSCLC
SK-MEL-5 melanoma = test system: SK-MEL-5 melanoma
M14 melanoma = test system: M14 melanoma
CCRF-CEM leukemia = test system: CCRF-CEM leukemia
KM12 colon = test system: KM12 colon
MDA-MB-435 = test system: MDA-MB-435
SW-620 colon = test system: SW-620 colon
NCI/ADR-RES ovarian = test system: NCI/ADR-RES ovarian
SNB-19 CNS = test system: SNB-19 CNS
UACC-257 melanoma = test system: UACC-257 melanoma
SF-295 CNS = test system: SF-295 CNS
SK-MEL-28 melanoma = test system: SK-MEL-28 melanoma
SF-268 CNS = test system: SF-268 CNS
U251 CNS = test system: U251 CNS
SF-539 CNS = test system: SF-539 CNS
SNB-75 CNS = test system: SNB-75 CNS
HT29 colon = test system: HT29 colon
MDA-MB-468 breast = test system: MDA-MB-468 breast
RPMI-8226 leukemia = test system: RPMI-8226 leukemia
HCT-116 colon = test system: HCT-116 colon
SK-OV-3 ovarian = test system: SK-OV-3 ovarian
HL-60(TB) leukemia = test system: HL-60(TB) leukemia
HOP-62 NSCLC = test system: HOP-62 NSCLC
T-47D breast = test system: T-47D breast
786-0 renal = test system: 786-0 renal
SK-MEL-2 melanoma = test system: SK-MEL-2 melanoma
NCI-H226 lung = test system: NCI-H226 lung
UO-31 renal = test system: UO-31 renal
RXF 393 renal = test system: RXF 393 renal
ACHN renal = test system: ACHN renal
MDA-MB-231 breast = test system: MDA-MB-231 breast
PC-3 prostate = test system: PC-3 prostate
A498 renal = test system: A498 renal
NCI-H522 lung = test system: NCI-H522 lung
UACC-62 melanoma = test system: UACC-62 melanoma
OVCAR-4 ovarian = test system: OVCAR-4 ovarian
MALME-3M melanoma = test system: MALME-3M melanoma
TK-10 renal = test system: TK-10 renal
NCI-H23 lung = test system: NCI-H23 lung
MOLT-4 leukemia = test system: MOLT-4 leukemia
SN12C renal = test system: SN12C renal
NCI-H460 lung = test system: NCI-H460 lung
LOX IMVI melanoma = test system: LOX IMVI melanoma
CAKI-1 renal = test system: CAKI-1 renal
IGROV1 ovarian = test system: IGROV1 ovarian
OVCAR-8 ovarian = test system: OVCAR-8 ovarian
EKVX NSCLC = test system: EKVX NSCLC
A549 NSCLC = test system: A549 NSCLC
HS 578T breast = test system: HS 578T breast
HCC-2998 colon = test system: HCC-2998 colon

CCCCSc1nc(Nc2ccc(S(N)(=O)=O)cc2)c(C#N)c(-c2ccc(Cl)cc2)n1
GI50 (COLO 205 colon): 13.4 µM | TGI (COLO 205 colon): 42.9 µM | GI50 (OVCAR-5 ovarian): 4.77 µM | TGI (OVCAR-5 ovarian): 22.9 µM | GI50 (BT-549 breast): 17.9 µM | TGI (BT-549 breast): 62 µM | GI50 (MCF7 breast): 4.59 µM | TGI (MCF7 breast): > 100 µM | GI50 (DU-145 prostate): 4.95 µM | TGI (DU-145 prostate): 18 µM | GI50 (OVCAR-3 ovarian): 2.23 µM | TGI (OVCAR-3 ovarian): 4.91 µM | GI50 (HOP-92 NSCLC): 1.01 µM | TGI (HOP-92 NSCLC): 4.71 µM | GI50 (SK-MEL-5 melanoma): 8.46 µM | TGI (SK-MEL-5 melanoma): 33.5 µM | GI50 (M14 melanoma): 2.36 µM | TGI (M14 melanoma): 6.09 µM | GI50 (CCRF-CEM leukemia): 7.69 µM | TGI (CCRF-CEM leukemia): > 100 µM | GI50 (KM12 colon): 6.26 µM | TGI (KM12 colon): 30.2 µM | GI50 (MDA-MB-435): 4.01 µM | TGI (MDA-MB-435): > 100 µM | GI50 (SW-620 colon): 3.3 µM | TGI (SW-620 colon): 12.4 µM | GI50 (NCI/ADR-RES ovarian): 2.98 µM | TGI (NCI/ADR-RES ovarian): 9.58 µM | GI50 (SNB-19 CNS): 3.65 µM | TGI (SNB-19 CNS): 15.7 µM | GI50 (UACC-257 melanoma): 14.9 µM | TGI (UACC-257 melanoma): > 100 µM | GI50 (SF-295 CNS): 1.82 µM | TGI (SF-295 CNS): 3.78 µM | GI50 (SK-MEL-28 melanoma): 5.98 µM | TGI (SK-MEL-28 melanoma): 31.1 µM | GI50 (SF-268 CNS): 5.64 µM | TGI (SF-268 CNS): 42.1 µM | GI50 (U251 CNS): 1.58 µM | TGI (U251 CNS): 3.28 µM | GI50 (SF-539 CNS): 1.62 µM | TGI (SF-539 CNS): 3.23 µM | GI50 (SNB-75 CNS): 1.1 µM | TGI (SNB-75 CNS): 3.22 µM | GI50 (HT29 colon): 2.73 µM | TGI (HT29 colon): 9.84 µM | GI50 (MDA-MB-468 breast): 14.5 µM | TGI (MDA-MB-468 breast): 36.1 µM | GI50 (RPMI-8226 leukemia): 5.17 µM | TGI (RPMI-8226 leukemia): > 100 µM | GI50 (HCT-116 colon): 2 µM | TGI (HCT-116 colon): 4.35 µM | GI50 (SK-OV-3 ovarian): 3.63 µM | TGI (SK-OV-3 ovarian): 14.1 µM | GI50 (HL-60(TB) leukemia): 50.6 µM | TGI (HL-60(TB) leukemia): > 100 µM | GI50 (HOP-62 NSCLC): 2.18 µM | TGI (HOP-62 NSCLC): 4.97 µM | GI50 (T-47D breast): 19.9 µM | TGI (T-47D breast): > 100 µM | GI50 (786-0 renal): 1.98 µM | TGI (786-0 renal): 5.11 µM | GI50 (SK-MEL-2 melanoma): 27.6 µM | TGI (SK-MEL-2 melanoma): > 100 µM | GI50 (NCI-H226 lung): 2.29 µM | TGI (NCI-H226 lung): 6 µM | GI50 (UO-31 renal): 2 µM | TGI (UO-31 renal): 6.33 µM | GI50 (RXF 393 renal): 1.81 µM | TGI (RXF 393 renal): 5.12 µM | GI50 (ACHN renal): 1.88 µM | TGI (ACHN renal): 3.67 µM | GI50 (MDA-MB-231 breast): 2.14 µM | TGI (MDA-MB-231 breast): 5.3 µM | GI50 (PC-3 prostate): 5.39 µM | TGI (PC-3 prostate): 26 µM | GI50 (A498 renal): 6.41 µM | TGI (A498 renal): 27.8 µM | GI50 (NCI-H522 lung): 10.6 µM | TGI (NCI-H522 lung): 70.5 µM | GI50 (UACC-62 melanoma): 2.8 µM | TGI (UACC-62 melanoma): 8.98 µM | GI50 (OVCAR-4 ovarian): 1.83 µM | TGI (OVCAR-4 ovarian): 3.89 µM | GI50 (MALME-3M melanoma): 3.03 µM | TGI (MALME-3M melanoma): 11 µM | GI50 (TK-10 renal): 2.32 µM | TGI (TK-10 renal): 6.86 µM | GI50 (NCI-H23 lung): 3.43 µM | TGI (NCI-H23 lung): 12.4 µM | GI50 (MOLT-4 leukemia): 3.15 µM | TGI (MOLT-4 leukemia): 20.1 µM | GI50 (SN12C renal): 2.08 µM | TGI (SN12C renal): 8.71 µM | GI50 (NCI-H460 lung): 2.08 µM | TGI (NCI-H460 lung): 4.66 µM | GI50 (LOX IMVI melanoma): 1.72 µM | TGI (LOX IMVI melanoma): 3.33 µM | GI50 (CAKI-1 renal): 1.94 µM | TGI (CAKI-1 renal): 4.8 µM | GI50 (IGROV1 ovarian): 5.79 µM | TGI (IGROV1 ovarian): 41.3 µM | GI50 (OVCAR-8 ovarian): 2.08 µM | TGI (OVCAR-8 ovarian): 4.93 µM | GI50 (EKVX NSCLC): 3.51 µM | TGI (EKVX NSCLC): 19.7 µM | GI50 (A549 NSCLC): 2.61 µM | TGI (A549 NSCLC): 9.81 µM | GI50 (HS 578T breast): 2.46 µM | TGI (HS 578T breast): 8.71 µM | GI50 (HCC-2998 colon): 6.56 µM | TGI (HCC-2998 colon): 78.3 µM
